# Results: patent publication US20050009151A1, “Methods for the stereospecific and enantiomeric enrichment of beta-amino acids” (Pharmacia Corporation, priority 2003, published 2005)
# Legend:
# Format in all cases: biochemical
# [1] = test system: Variovorax paradoxus β-aminotransferase; experiment: Resolution of substrates with Variovorax paradoxus β-aminotransferase
# Procedure: […] Reactions were typically run at 1 ml scale with gentle shaking at 26° C.
# (§1) 10 ul of 2N HCl was added to a plastic screw capped vial and 90ul of sample was then added. The pH of the mixture confirmed to be below 4 and the mixture was centrifuged in a microcentrifuge at maximum speed for about 2 minutes to remove precipitated materials.
# (§2) Samples were derivatized using Marfey's reagent, N•-(2,4-dinitro-5-fluorophenyl)-L-alaninamide. A stock solution of 10 mg/mL in acetone of this reagent was prepared. Either 20 or 40 ul of bioconversion sample was added to 20 ul 1.3 M KHCO3. To this was added 80 ul of the stock reagent solution, the vial sealed tightly, and heated at 70° C. for 10 minutes. As needed, after cooling to room temperature, the heated samples were centrifuged to remove solids. The supernatants were analyzed using an Eclipse XDB-C8 column, 4.6×150 mm, eluting with methanol gradient in water, from 50% methanol to 100% methanol. Both solvents were acidified with 0.1% trifluoroacetic acid.
# (§3) For resolution experiments, the area of the peak consumed (converted to keto acid) was compared to the area remaining of the unconsumed peak, on the assumption that none was converted.
# [2] = test system: β-aminotransferase enzyme from Variovorax paradoxus; experiment: D-β-aminotransferase amino donor specificity; conditions: for substrate for the enzyme (amino donor): 2 mg/ml amino donor, 10 mg/ml α-ketoglutarate, 1 hour, 37° C.
# Procedure: The same preparation of semi-purified β-aminotransferase enzyme from Variovorax paradoxus was then assayed using a-ketoglutarate as the keto acceptor, in an assay consisting of 100 mM potassium phosphate, 10 mg/ml α-ketoglutarate, 2 mg/ml amino donor and 0.1 mM pyridoxal phosphate, at pH 8.0. The reactions were run at 37° C. with mild stirring for 1 hour. At 1 hour reaction time, 0.1 ml samples were withdrawn, acidified with addition of 0.1 ml 0.1N HCl, and centrifuged. The supernatant solution was collected into HPLC sample vials. Conversion of an amino acid to the corresponding ketone was quantified using reverse phase HPLC. The following amino acids (as an amino donor) were screened for activity: α-(D)-phenylalanine, α-(L)-phenylalanine, β-(D)-phenylalanine, β-(L)-phenylalanine, (D)-3-amino-5-phenylpentanoic acid, and (L)-3-amino-5-phenylpentantoic acid.
# [3] = test system: β-aminotransferase from Alcaligenes eutrophus; experiment: Resolution of substrates with cell lysate from Alcaligenes eutrophus
# Procedure: A buffer consisting of 0.3M Tricine, 15 mM MgSO4, enough pyridoxal phosphate to impart a pale yellow color and 0.3M sodium glutamate (for deamination reactions) or 0.3 M 2-ketoglutarate monopotassium salt (for synthesis reactions) was prepared.
# One part buffer was combined with two parts lysate and this mixture was then added to pre-weighed substrate to give a concentration of 1 mg/ml substrate. Reactions were typically run at 1 ml scale with gentle shaking at 26° C.
# as §1, §2, §3
smiles,measurement,setting,value
NC(CC(=O)O)c1cc2ccccc2o1 (stereo not drawn) [3-amino-3-(2-benzofuryl))propanoic acid],Peak consumption (later eluting peak),"[1]; cell lysate, 5 hours",98%
CCCC(N)CC(=O)O (stereo not drawn) [3-aminohexanoic acid],Peak consumption (later eluting peak),"[1]; cell lysate, 1 hour",>99%
N[C@H](Cc1ccccc1)C(=O)O [α-(D)-phenylalanine],substrate for the enzyme (amino donor),[2],Only β-(D)-phenylalanine and (D)-3-amino-5-phenylpenantoic acid were substrates
NC(CC(=O)O)c1ccc(Oc2ccccc2)cc1 (stereo not drawn) [3-amino-3-(4-phenoxyphenyl)propanoic acid],Peak consumption (later eluting peak),"[1]; cell lysate, 5 hours",58%
"N[C@H](CCc1ccccc1)CC(=O)O [(D)-3-amino-5-phenylpenantoic acid, D- or (R)-3-amino-5-phenyl-pentanoic acid]",substrate for the enzyme (amino donor),[2],substrates for the enzyme
"N[C@@H](CCc1ccccc1)CC(=O)O [(L)-3-amino-5-phenylpentantoic acid, L- or (S)-3-amino-5-phenyl-pentanoic acid]",substrate for the enzyme (amino donor),[2],Only β-(D)-phenylalanine and (D)-3-amino-5-phenylpenantoic acid were substrates
NC(CC(=O)O)c1ccsc1 (stereo not drawn) [3-amino-3-(3-thienyl)propanoic acid],Peak consumption (earlier eluting peak),[3]; 21 hours,82%
same,Peak consumption (earlier eluting peak),[3]; 22 hours,82%
N[C@H](CC(=O)O)c1cccc([N+](=O)[O-])c1 [m-nitro-β-phenylalanine],Peak consumption (later eluting peak),"[1]; cell lysate, 23 hours",95%
N[C@H](CC(=O)O)c1ccccc1F [o-fluoro-β-phenylalanine],Peak consumption (later eluting peak),"[1]; cell lysate, 67 hours",99%
same,Peak consumption (later eluting peak),"[1]; cell lysate, 67 hours, listed as o-fluoro-α-phenylalanine",99%
N[C@@H](Cc1ccccc1)C(=O)O [α-(L)-phenylalanine],substrate for the enzyme (amino donor),[2],Only β-(D)-phenylalanine and (D)-3-amino-5-phenylpenantoic acid were substrates
NC(CC(=O)O)C1CCCCC1 (stereo not drawn) [3-amino-3-cyclohexylpropanoic acid],Peak consumption (later eluting peak),"[1]; cell lysate, 2 hours",>99%
N[C@H](CC(=O)O)c1ccccc1 (racemic) [β-phenylalanine],Peak consumption (later eluting peak),"[1]; cell lysate, 5 hours",>99%
same,Peak consumption (later eluting peak),"[1]; cell lysate, 23 hours",82%
same,change in the concentration of the later eluting stereoisomer,[3]; after one day,no detectable change
same,earlier eluting peak remaining,[3]; after one day,not detectable
NC(CC(=O)O)c1ccc2ccccc2c1 (stereo not drawn) [3-amino-3-(2-naphthyl)propanoic acid],Peak consumption (later eluting peak),"[1]; cell lysate, 5 hours",50%
NC(CC(=O)O)c1ccco1 (stereo not drawn) [3-amino-3-(2-furyl)propanoic acid],Peak consumption (earlier eluting peak),[3]; 21 hours,73%
same,Peak consumption (earlier eluting peak),"[3]; 21 hours, listed as 3-amino-3-(2-furyl) propanoic acid",73%
NC1CCCCC1C(=O)O (stereo not drawn) [2-aminocyclohexanecarboxylic acid],Peak consumption (later eluting peak(s)),"[1]; cell lysate, 19 hours",>99%
COc1ccc([C@H](N)CC(=O)O)cc1 [p-methoxy-β-phenylalanine],Peak consumption (later eluting peak),"[1]; cell lysate, 23 hours",80%
NC(CC(=O)O)C1CC1 (stereo not drawn) [3-amino-3-cyclopropylpropanoic acid],early eluting peak observed,"[1]; cell lysate, 0.225 M substrate, 0.45 M alpha-ketoglutarate, pH 8.1, 18.2 hours",99.5%
same,Peak consumption (later eluting peak),"[1]; cell lysate, 22 hours",98%
same,Peak consumption (earlier eluting peak),[3]; 22 hours,approximately 42%
same,Peak consumption (earlier eluting peak),"[3]; 22 hours, listed as 3-amino-3-cyclopropyl propanoic acid",42%
CC(C)C(N)CC(=O)O (stereo not drawn) [3-amino-4-methylpentanoic acid],Peak consumption (later eluting peak),"[1]; cell lysate, 48 hours",65%
same,Peak consumption (later eluting peak),"[1]; cell lysate, 48 hours, listed as 3-amino-4-methylpentanoic",65%
NC(CC(=O)O)c1cccnc1 (stereo not drawn) [3-amino-3-(3-pyridyl)propanoic acid],Peak consumption (later eluting peak),"[1]; cell lysate, 5 hours",>95%
"N[C@@H](CC(=O)O)c1ccccc1 [β-(D)-phenylalanine, D- or (S)-3-amino-3-phenylpropionic acid]",substrate for the enzyme (amino donor),[2],substrates for the enzyme
same,preference of the enzyme for the enantiomer,"[2]; enzyme preferring α-ketoglutarate as amino acceptor, no activity on the L-enantiomer",100%
N[C@H](CC(=O)O)c1ccc(F)cc1 [p-fluoro-β-phenylalanine],Peak consumption (later eluting peak),"[1]; cell lysate, 23 hours",82%
N[C@H](CC(=O)O)c1ccc([N+](=O)[O-])cc1 [p-nitro-β-phenylalanine],Peak consumption (later eluting peak),"[1]; sodium sulfate purified beta-aminotransferase, 30 minutes",98%
same,Peak consumption (later eluting peak),"[1]; sodium sulfate purified beta-aminotransferase, 30 minutes, listed as p-nitro-α-phenylalanine",approximately 98%
same,later eluting peak remaining,"[1]; sodium sulfate purified beta-aminotransferase, after 1 hour",not detected
same,change in the concentration of the early eluting stereoisomer,"[1]; sodium sulfate purified beta-aminotransferase, after 18 hours",no detectable change
